Ki data for 27 compounds are collected here from patent US7790727B2, “Benzenesulfonanilide compounds suitable for treating disorders that respond to modulation of the serotonin 5-HT6 receptor” (Abbott GmbH & Co. KG, priority 2007, dated 2010).

Counter-ions that a name gives are not always drawn. Like-named read-outs stand apart in the source and are kept apart here.

The Ki is a dissociation constant, usually derived from enzyme kinetics or from competition with a known ligand.

The target in the experiment is T1, h-5-HT6 receptor (Homo sapiens, UniProt P50406).
T1 construct: expressed in transfected cells
In words: 5-HT6 receptor binding assay (displacement of [3H]-LSD). How it is done:
Displacement of radioligands binding to the following cloned human receptors
1. Preparation of Membranes by Ultrasonic Treatment and Differential Centrifugation
Cells from stable clonal cell lines expressing the corresponding receptor (5-HT6, α1-adrenergic, dopamine D2 or histamine H1 receptors) were washed with PBS (w/o Ca^++, Mg^++) and harvested in PBS with 0.02% EDTA. The cells were collected by centrifugation at 500 g for 10 min. at 4° C., washed with PBS and centrifuged (500 g, 10 min. 4° C.). The pellets were stored at −80° C. until use. F or membrane preparation, the thawed cell pellet was resuspended in ice-cold sucrose buffer (0.25 M sucrose, 10 mM Hepes (pH 7.4), 1 mM Phenylmethylsulfonyl fluoride (PMSF) in DMSO, 5 μg/ml Pepstatin-A, 3 mM EDTA, 0.025% Bacitracin) and homogenized with a Branson Sonifier W-250 (Settings: Timer 4; Output Control 3; Duty Cycle constant; 2 to 3 cycles). Cell disruption was checked with the aid of a microscope. Remaining unbroken cells were pelleted at 1.000 g for 10 min. at 4° C. The sucrose buffer supernatant was then centrifuged at 60.000 g for 1 h at 4° C. (Beckman Ultrazentrifuge XL 80). The pellet was resuspended in 30 ml ice-cold Tris buffer (20 mM TRIS (pH 7.4), 5 μg/ml Pepstatin A, 0.1 mM PMSF, 3 mM EDTA) by pipetting through a 10 ml serological pipet and centrifuged for 1 h at 4° C. at 60.000 g. A final resuspension was performed in a small volume of ice-cold Tris buffer (see above) by pressing through a serological pipet followed by ultrasonic treatment with a Branson Sonifier W-250 (Settings: Timer 1; Output Control 3; Duty Cycle constant; 1 cycle). Protein concentration was determined (BCA-Kit; Pierce) and aliquots stored at −80° C. or in liquid nitrogen for long-term storage.
2. Receptor Binding Experiments
All receptor binding experiments were carried out in the corresponding assay buffer in a total volume of 200 μl in the presence of various concentrations of test compound (10^−5 M to 10^−9 M, tenfold serial dilution, duplicate determinations). The assays were terminated by filtration on polyethylenimine (PEI 0.1% or 0.3%) presoaked Packard Unifilter Plates (GF/C or GF/B) with a Tomtec Machill U 96 well-plate harvester. After the plates had been dried for 2 h at 55° C. in a drying chamber scin tillation cocktail (BetaPlate Scint; PerkinElmer) was added. Radioactivity was measured in a Microbeta Trilux two hours after the addition of the scintillation mixture. Data derived from liquid scintillation counting were analysed by iterative non-linear regression analysis with the use of the Statistical Analysis System (SAS): a program similar to “LIGAND” as described by Munson and Rodbard (Analytical Biochemistry 107, 220-239 (1980).
a) 5-HT6 Receptor Binding Assay
HEK293 cells stably expressing the h-5-HT6 receptor (NCBI Reference Sequence XM 001435) were cultured in RPMI1640 medium supplemented with 25 mM HEPES, 10% fetal calf serum and 1-2 mM glutamine. The membrane preparation was performed as described in section 1. […] Non-specific binding was defined with 1 μM methiothepin. The binding reaction was carried out for 3.5 h at room temperature. During the incubation, the plates were shaken on a plate shaker at 100 rpm and terminated by filtration on Packard Unifilter GF/C (0.1% PEI) plates, followed by 2 wash cycles with ice-cold 50 mM Tris-HCl, 5 mM CaCl2.
Data derived from liquid scintillation counting were analyzed by iterative non-linear regression analysis with the use of the Statistical Analysis System (SAS): a program similar to “LIGAND” as described by Munson and Rodbard (Anal. Biochem. 1980, 107, 220-239). Fitting was performed according to formulae described by Feldman (Anal. Biochem. 1972, 48, 317-338). IC50, nH and Ki values were expressed as geometrical mean.
A general note: Loss of bound radioactivity is the signal in a displacement assay; it reports binding, not function.

Where [1] appears, read: membranes of HEK293 cells expressing h-5-HT6 receptor, 1 nM [3H]-LSD, read-out: Ki(5HT6).

T1 sequence (P50406 whole entry): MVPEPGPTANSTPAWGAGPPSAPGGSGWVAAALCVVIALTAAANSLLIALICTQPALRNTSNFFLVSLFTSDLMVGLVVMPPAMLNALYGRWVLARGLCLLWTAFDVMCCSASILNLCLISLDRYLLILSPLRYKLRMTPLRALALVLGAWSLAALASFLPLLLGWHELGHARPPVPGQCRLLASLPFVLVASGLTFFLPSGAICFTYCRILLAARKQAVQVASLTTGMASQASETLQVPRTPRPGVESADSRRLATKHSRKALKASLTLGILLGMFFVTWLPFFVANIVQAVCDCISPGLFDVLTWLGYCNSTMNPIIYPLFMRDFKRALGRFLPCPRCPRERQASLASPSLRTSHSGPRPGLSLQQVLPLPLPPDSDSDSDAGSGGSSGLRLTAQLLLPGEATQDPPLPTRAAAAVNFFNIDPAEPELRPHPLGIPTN

For `O=S(=O)(Nc1ccc(F)c(N2CCNCC2)c1)c1cccc(OC(F)F)c1` [Example 26, 3-Difluoromethoxy-N-(4-fluoro-3-piperazin-1-yl-phenyl)-benzenesulfonamide Hydrochloride], the Ki is below 50 nM.

Take `O=S(=O)(Nc1cccc(N2CCNCC2)c1)c1cccc(OC(F)F)c1` [Example 28, 3-Difluoromethoxy-N-(3-piperazin-1-yl-phenyl)-benzenesulfonamide Hydrochloride]: the inhibitory constant (Ki) under setting [1] is below 50 nM.

Take `O=S(=O)(Nc1cccc(N2CCNCC2)c1)c1cccc2c1OC(F)(F)O2` [Example 29, 2,2-Difluoro-benzo[1,3]dioxole-4-sulfonic acid (3-piperazin-1-yl-phenyl)-amide Hydrochloride]: the Ki under setting [1] was below 10 nM.

Regarding `COc1ccc(NS(=O)(=O)c2cccc3c2OC(F)(F)O3)cc1N1CCNCC1` [Example 4, 2,2-Difluoro-benzo[1,3]dioxole-4-sulfonic Acid (4-methoxy-3-piperazin-1-yl-phenyl)-amide Hydrochloride], the inhibition constant (Ki) under setting [1] is below 10 nM.

Regarding `O=S(=O)(Nc1ccc(OCCF)c(N2CCNCC2)c1)c1cccc(OC(F)F)c1` [Example 11, 3-Difluoromethoxy-N-[4-(2-fluoroethoxy)-3-piperazin-1-yl-phenyl]-benzenesulfonamide Hydrochloride], the inhibitory constant (Ki) under setting [1] was below 10 nM.

As to `O=S(=O)(Nc1ccc(F)c(N2CCNCC2)c1)c1cccc2c1OC(F)(F)O2` [Example 27, 2,2-Difluoro-benzo[1,3]dioxole-4-sulfonic acid (4-fluoro-3-piperazin-1-yl-phenyl)-amide Hydrochloride], under setting [1], the Ki is below 50 nM.

For the compound `CCCN(c1ccc(OC)c(N2CCNCC2)c1)S(=O)(=O)c1cccc(OC(F)F)c1` [Example 18, 3-Difluoromethoxy-N-(4-methoxy-3-piperazin-1-yl-phenyl)-N-propyl-benzene-sulfonamide Hydrochloride], the Ki under setting [1] is below 50 nM.

`CN1CCN(c2cc(NS(=O)(=O)c3cccc(OC(F)F)c3)ccc2OC(F)(F)F)CC1` [Example 20, 3-Difluoromethoxy-N-[3-(4-methyl-piperazin-1-yl)-4-trifluoromethoxy-phenyl]-benzenesulfonamide Hydrochloride]: under setting [1], the inhibition constant Ki was below 10 nM.

As to `COc1ccc(N(C)S(=O)(=O)c2cccc(OC(F)F)c2)cc1N1CCNCC1` [Example 2, 3-Difluoromethoxy-N-(4-methoxy-3-piperazin-1-yl-phenyl)-N-methyl-benzene-sulfonamide Hydrochloride], the inhibition constant Ki under setting [1] is below 20 nM.

Regarding `CCN(c1ccc(OC)c(N2CCNCC2)c1)S(=O)(=O)c1cccc2c1OC(F)(F)O2` [Example 22, 2,2-Difluoro-benzo[1,3]dioxole-4-sulfonic acid ethyl-(4-methoxy-3-piperazin-1-yl-phenyl)-amide Hydrochloride], the inhibitory constant (Ki) under setting [1] is below 50 nM.

Consider `COc1ccc(S(=O)(=O)Nc2cccc(N3CCNCC3)c2)cc1OC(F)F` [Example 31, 3-Difluoromethoxy-4-methoxy-N-(3-piperazin-1-yl-phenyl)-benzenesulfonamide Trifluoroacetate], for which, under setting [1], the Ki is below 50 nM.

As to `COc1ccc(NS(=O)(=O)c2ccc(OC(F)F)cc2)cc1N1CCN(C)CC1` [Example 3, 4-Difluoromethoxy-N-[4-methoxy-3-(4-methyl-piperazin-1-yl)-phenyl]-benzenesulfonamide], the Ki under setting [1] is below 20 nM.

On to `COc1ccc(N(C)S(=O)(=O)c2cccc3c2OC(F)(F)O3)cc1N1CCN(C)CC1` [Example 21, 2,2-Difluoro-benzo[1,3]dioxole-4-sulfonic acid [4-methoxy-3-(4-methyl-piperazin-1-yl)-phenyl]-methyl-amide Hydrochloride], for which, under setting [1], the inhibition constant (Ki) was below 50 nM.

Turning to `CCN(c1ccc(OC)c(N2CCN(C)CC2)c1)S(=O)(=O)c1cccc(OC(F)F)c1` [Example 16, 3-Difluoromethoxy-N-ethyl-N-[4-methoxy-3-(4-methyl-piperazin-1-yl)-phenyl]-benzenesulfonamide Hydrochloride], the inhibitory constant (Ki) under setting [1] is below 10 nM.

On to `COc1ccc(N(C)S(=O)(=O)c2cccc3c2OC(F)(F)O3)cc1N1CCNCC1` [Example 23, 2,2-Difluoro-benzo[1,3]dioxole-4-sulfonic acid methyl-(4-methoxy-3-piperazin-1-yl-phenyl)-amide Hydrochloride], for which, under setting [1], the Ki was below 50 nM.

Turning to `COc1ccc(NS(=O)(=O)c2ccc(OC(F)F)cc2)cc1N1CCNCC1` [Example 15, 4-Difluoromethoxy-N-(4-methoxy-3-piperazin-1-yl-phenyl)-benzenesulfonamide Hydrochloride], the Ki under setting [1] was below 50 nM.

Consider `COc1ccc(N(C)S(=O)(=O)c2cccc(OC(F)F)c2)cc1N1CCN(C)CC1` [Example 24, 3-Difluoromethoxy-N-[4-methoxy-3-(4-methyl-piperazin-1-yl)-phenyl]-N-methyl-benzenesulfonamide Hydrochloride], for which the Ki under setting [1] was below 10 nM.

Take `O=S(=O)(Nc1ccc(OCCF)c(N2CCNCC2)c1)c1cccc2c1OC(F)(F)O2` [Example 12, 2,2-Difluoro-benzo[1,3]dioxole-4-sulfonic acid (4-(2-fluoroethoxy)-5-piperazin-1-yl-phenyl)-amide Hydrochloride]: under setting [1], the inhibition constant Ki was below 50 nM.

On to `COc1ccc(NS(=O)(=O)c2ccccc2OC(F)F)cc1N1CCNCC1` [Example 14, 2-Difluoromethoxy-N-(4-methoxy-3-piperazin-1-yl-phenyl)-benzenesulfonamide Trifluoroacetate], for which the inhibitory constant (Ki) under setting [1] is below 10 nM.

In the case of `COc1cc(Cl)c(NS(=O)(=O)c2cccc(OC(F)F)c2)cc1N1CCNCC1` [Example 19, N-(2-Chloro-4-methoxy-5-piperazin-1-yl-phenyl)-3-difluoromethoxy-benzene-sulfonamide Trifluoroacetate], the Ki under setting [1] was below 50 nM.

As to `O=S(=O)(Nc1ccc(OC(F)(F)F)c(N2CCNCC2)c1)c1cccc(OC(F)F)c1` [Example 6, 3-Difluoromethoxy-N-(3-piperazin-1-yl-4-trifluoromethoxy-phenyl)-benzenesulfonamide], the inhibition constant (Ki) under setting [1] was below 20 nM.

Take `COc1ccc(S(=O)(=O)Nc2ccc(OC)c(N3CCNCC3)c2)cc1OC(F)F` [Example 13, 3-Difluoromethoxy-4-methoxy-N-(4-methoxy-3-piperazin-1-yl-phenyl)-benzenesulfonamide Hydrochloride]: the Ki under setting [1] is below 10 nM.

Regarding `COc1ccc(N(CCCF)S(=O)(=O)c2cccc(OC(F)F)c2)cc1N1CCNCC1` [Example 17, 3-Difluoromethoxy-N-(3-fluoropropyl)-N-(4-methoxy-3-piperazin-1-yl-phenyl)-benzenesulfonamide Hydrochloride], under setting [1], the Ki is below 50 nM.

In the case of `COc1c(F)cc(NS(=O)(=O)c2cccc(OC(F)F)c2)cc1N1CCNCC1` [Example 9, 3-Difluoromethoxy-N-(3-fluoro-4-methoxy-5-piperazin-1-yl-phenyl)-benzenesulfonamide Hydrochloride], the inhibition constant (Ki) under setting [1] is below 50 nM.

As for `O=S(=O)(Nc1ccc(OC(F)F)c(N2CCNCC2)c1)c1ccccc1OC(F)F` [Example 7, 2-Difluoromethoxy-N-(3-piperazin-1-yl-4-difluoromethoxy-phenyl)-benzenesulfonamide Trifluoroacetate], the Ki under setting [1] was below 50 nM.

In turn, `O=S(=O)(Nc1cccc(N2CCNCC2)c1)c1ccccc1OC(F)F` [Example 30, 2-Difluoromethoxy-N-(3-piperazin-1-yl-phenyl)-benzenesulfonamide Trifluoroacetate] had a Ki below 10 nM.

For `COc1ccc(NS(=O)(=O)c2cccc(OC(F)F)c2)cc1N1CCNCC1` [Example 1, 3-Difluoromethoxy-N-(4-methoxy-3-piperazin-1-yl-phenyl)-benzenesulfonamide Hydrochloride], under setting [1], the Ki was below 10 nM.
